Reference: paper PMC4321955 (Free radical biology & medicine, 2013)

Columns and labels:
[1] = target: ubiquinone-binding site of complex I (site IQ) (Rattus norvegicus, UniProt A6K8N6+P03889+Q641Y2); experiment: site IQ superoxide/H2O2 production assay; type: biochemical; conditions: at the compound's estimated IC50 (80 µM for compound 15); 5 mM succinate
[2] = tested on: site IF/DH (site IF plus matrix NAD-linked dehydrogenases); experiment: site IF/DH superoxide/H2O2 production assay; type: biochemical, rat
[3] = tested on: flavin site of complex II (site IIF); experiment: site IIF superoxide/H2O2 production assay; type: biochemical, rat
[4] = tested on: outer ubiquinone-binding site of complex III (site IIIQo); experiment: site IIIQo superoxide/H2O2 production assay; type: biochemical, rat
[5] = tested on: mitochondrial sn-glycerol 3-phosphate dehydrogenase (mGPDH); experiment: mGPDH superoxide/H2O2 production assay; type: biochemical, rat
[6] = tested on: mitochondrial membrane potential (ΔΨm); experiment: ΔΨm assay with potentiometric dye TMRM; type: biochemical, rat; conditions: for lowest concentration that significantly decreased ΔΨm: 5 mM glutamate plus 5 mM malate
complex I = experiment: rate of reverse electron transport from succinate to NAD; type: biochemical, rat
site IQ = type: biochemical, rat; conditions: […] CN-POBS
site IF = experiment: steady-state H2O2 production specifically from site IF; type: biochemical, rat; conditions: […] CN-POBS; 5 mM malate, […] ATP, 1.5 mM aspartate, 4 µM rotenone, 1 µg/mL oligomycin
[7] = ref NCBI PubChem compound database; cited from earlier work
[8] = at the compound's estimated site IQ IC50 (80 µM for compound 15)
[9] = dose-response 0.08-80 µM, none observed below this

## O=[N+]([O-])c1ccc(Oc2ccc(S(=O)(=O)NC3CCCCC3)cc2)cc1 [CN-POBS, N-cyclohexyl-4-(4-nitrophenoxy)benzenesulfonamide]
[1]
  IQ: normalized percent change from DMSO in H2O2 production: −56%
[2]; [8]
  IF/DH: normalized percent change from DMSO in H2O2 production: 7%
[2]; [9]
  concentration with significant effects on H2O2 production from site IF/DH: ≥ 25 µM
[3]; [8]
  IIF: normalized percent change from DMSO in H2O2 production: 4%
[3]; [9]
  concentration with significant effects on H2O2 production from site IIF: ≥ 25 µM
[4]; [8]
  IIIQo: normalized percent change from DMSO in H2O2 production: 0%
[4]; [9]
  concentration with significant effects on H2O2 production from site IIIQo: ≥ 25 µM
[5]; [8]
  mGPDH: normalized percent change from DMSO in H2O2 production: −2%
[5]; [9]
  concentration with significant effects on H2O2 production from mGPDH: ≥ 25 µM
[6]; absence of nigericin, TMRM
  lowest concentration that significantly decreased ΔΨm: 8 µM
[6]; presence of nigericin, TMRM
  lowest concentration that significantly decreased ΔΨm: 25 µM
[6]; 5 mM succinate and 4 µM rotenone, TMRM
  concentration that significantly decreased ΔΨm: 80 µM
[6]; [8]
  ΔΨm: normalized percent change from DMSO: −1%
Complex I; 5 mM succinate plus 0.5 mM glutamate, no significant effect below this
  concentration with significant effect on reverse electron flux through complex I (rate of NAD(P)+ reduction): ≥ 25 µM
Complex I; at the compound's estimated site IQ IC50, succinate via complex I
  Rate of NAD(P)+ Reduction: normalized percent change from DMSO: −1%
Site IQ; 5 mM succinate alone
  decrease in total rate of H2O2 production: 50%
Site IQ; 5 mM succinate with 4 µM rotenone
  effect on H2O2 production by succinate in the presence of rotenone (from site IF/DH): no significant effect
Site IF
  effect on H2O2 production specifically from site IF: no effect
[7]
  LogP: 4.1
